Several values for one entry are separate records, joined by “and”; a condition that tells them apart may be missing. Equal values may be shown once.
System: Swiss mice, Sarcoma 180 sc, mean tumor weight T/C
Assay: NCI In Vivo Anticancer Drug Screen. Data for tumor model Sarcoma 180 (subcutaneous) in Swiss mice
Settings: endpoint: mean tumor weight, higher = larger tumour
In short: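 Readout is the ratio of treated-group measurement to vehicle-control measurement (T/C), based on survival or tumor size in mice carrying transplanted tumors.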

[1] = dose: 15.0 mg/kg/injection, schedule: Q01DX007 (ip), vehicle: carboxymethylcellulose (CMC)

Q: What does the source list for `NCCCC(NC(=O)CCCCCCCCN=C(N)N)C(O)CCCCCCCCN=C(N)N` (centres undefined)?
A: T/C (dose: 0.38 mg/kg/injection, schedule: Q01DX007 (ip), vehicle: carboxymethylcellulose (CMC)): 100 % of control; T/C (dose: 0.75 mg/kg/injection, schedule: Q01DX007 (ip), vehicle: carboxymethylcellulose (CMC)): 97 % of control; T/C (dose: 1.5 mg/kg/injection, schedule: Q01DX007 (ip), vehicle: carboxymethylcellulose (CMC)): 113 % of control; T/C (dose: 3.0 mg/kg/injection, schedule: Q01DX007 (ip), vehicle: carboxymethylcellulose (CMC)): 76 % of control; T/C (dose: 6.0 mg/kg/injection, schedule: Q01DX007 (ip), vehicle: carboxymethylcellulose (CMC)): 92 % of control; T/C (dose: 9.0 mg/kg/injection, schedule: Q01DX007 (ip), vehicle: carboxymethylcellulose (CMC)): 123 % of control; T/C (dose: 12.0 mg/kg/injection, schedule: Q01DX007 (ip), vehicle: carboxymethylcellulose (CMC)): 68 % of control; T/C [1]: 47 % of control

Q: With `Nc1nc(=S)c2ncn(C3OC(COC(=O)c4ccc([N+](=O)[O-])cc4)C(OC(=O)c4ccc([N+](=O)[O-])cc4)C3OC(=O)c3ccc([N+](=O)[O-])cc3)c2[nH]1` (centres undefined) as the compound, how does the T/C (dose: 4.0 mg/kg/injection, schedule: Q01DX007 (ip), vehicle: carboxymethylcellulose (CMC)) read?
A: 77 % of control

Q: What about the T/C (dose: 7.0 mg/kg/injection, schedule: Q01DX007 (ip), vehicle: carboxymethylcellulose (CMC)) of the same compound?
A: 94 % of control

Q: What about the T/C [1] of the same compound?
A: 93 % of control and 110 % of control

Q: And the T/C (dose: 23.0 mg/kg/injection, schedule: Q01DX007 (ip), vehicle: methylcellulose (MC))?
A: 63 % of control

Q: And the T/C (dose: 35.0 mg/kg/injection, schedule: Q01DX007 (ip), vehicle: carboxymethylcellulose (CMC))?
A: 37 % of control

Q: And the T/C (dose: 36.0 mg/kg/injection, schedule: Q01DX007 (ip), vehicle: carboxymethylcellulose (CMC))?
A: 29 % of control and 32 % of control

Q: What about the T/C (dose: 36.0 mg/kg/injection, schedule: Q01DX007 (ip), vehicle: methylcellulose (MC)) of the same compound?
A: 77 % of control

Q: What about the T/C (dose: 53.0 mg/kg/injection, schedule: Q01DX007 (ip), vehicle: carboxymethylcellulose (CMC)) of the same compound?
A: 15 % of control and 30 % of control

Q: And the T/C (dose: 53.0 mg/kg/injection, schedule: Q01DX007 (ip), vehicle: methylcellulose (MC))?
A: 56 % of control

Q: What about the T/C (dose: 80.0 mg/kg/injection, schedule: Q01DX007 (ip), vehicle: carboxymethylcellulose (CMC)) of the same compound?
A: 16 % of control

Q: What about the T/C (dose: 80.0 mg/kg/injection, schedule: Q01DX007 (ip), vehicle: methylcellulose (MC)) of the same compound?
A: 62 % of control

Q: For `CO[C@@H]1[C@@H](OC2OC(C)C(OC3CC(C)(O)C(OC(=O)CC(C)C)C(C)O3)C(N(C)C)C2O)[C@@H](CC=O)C[C@@H](C)C(=O)/C=C/C2O[C@H]2C[C@@H](C)OC(=O)C[C@H]1OC(C)=O` (some centres undefined), which T/C (dose: 25.0 mg/kg/injection, schedule: Q#A X014 (ip), vehicle: methylcellulose (MC)) is on record?
A: 86 % of control

Q: And the T/C (dose: 50.0 mg/kg/injection, schedule: Q#A X014 (ip), vehicle: methylcellulose (MC))?
A: 116 % of control

Q: And the T/C (dose: 75.0 mg/kg/injection, schedule: Q#A X014 (ip), vehicle: methylcellulose (MC))?
A: 88 % of control

Q: And the T/C (dose: 100.0 mg/kg/injection, schedule: Q#A X014 (ip), vehicle: methylcellulose (MC))?
A: 95 % of control

Q: What about the T/C (dose: 100.0 mg/kg/injection, schedule: Q#A X014 (ip), vehicle: other) of the same compound?
A: 96 % of control

Q: And the T/C (dose: 125.0 mg/kg/injection, schedule: Q#A X014 (ip), vehicle: methylcellulose (MC))?
A: 75 % of control

Q: And the T/C (dose: 125.0 mg/kg/injection, schedule: Q#A X014 (ip), vehicle: other)?
A: 113 % of control

Q: And the T/C (dose: 150.0 mg/kg/injection, schedule: Q#A X014 (ip), vehicle: other)?
A: 65 % of control

Q: And the T/C (dose: 175.0 mg/kg/injection, schedule: Q#A X014 (ip), vehicle: other)?
A: 57 % of control

Q: For `OC1C(O)C(O)C2(CO2)C(O)C1O` (centres undefined), which T/C (dose: 150.0 mg/kg/injection, schedule: Q#A X014 (ip), vehicle: saline) is on record?
A: 122 % of control

Q: And the T/C (dose: 300.0 mg/kg/injection, schedule: Q#A X014 (ip), vehicle: saline)?
A: 79 % of control

Q: `O=C1c2ccccc2C(=O)c2c1ccc1c2[nH]c2ccccc21` was tested. Which T/C (dose: 82.0 mg/kg/injection, schedule: Q01DX007 (ip), vehicle: saline) did it give?
A: 48 % of control

Q: What about the T/C (dose: 125.0 mg/kg/injection, schedule: Q01DX007 (ip), vehicle: saline) of the same compound?
A: 50 % of control

Q: And the T/C (dose: 187.0 mg/kg/injection, schedule: Q01DX007 (ip), vehicle: saline)?
A: 23 % of control

Q: And the T/C (dose: 280.0 mg/kg/injection, schedule: Q01DX007 (ip), vehicle: saline)?
A: 42 % of control

— PubChem BioAssay AID342 (DTP/NCI, 2004)
